In ChEMBL document CHEMBL1201862, “PubChem BioAssay data set” (2004):
Activity calls are given as the source filed them. Rule as the data show it, for most assays here: actives have a measured EC50 and inactives only a lower limit.

Experiments:
[1] = Luminescence Cell-Based Dose Retest to Confirm Inhibitors of Cancer Stem Cells. [Related pubchem assays (depositor defined):AID2717, AID2721]; assay type: functional; conditions: Homo sapiens
[2] = Trypanosoma cruzi growth suppression in host cells – NIH3T3 host cells, beta-gal luminescence, confirmation (AID 2044); assay type: functional, cell-based;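 also: intracellular parasites grown in NIH/3T3 mouse fibroblasts as host cells; luminescent beta-galactosidase reporter signal from transgenic T. cruzi replicating inside host cells; inhibitors lower the luminescence signal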
[3] = NIH3T3 cell viability loss – ATP luminescence, mouse fibroblasts, counter-screen, dose response (AID 2010); assay type: functional, cell-based;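 also: cells exposed to compound for about 90 hours before reading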
Protein skinhead-1 = target: T1, Protein skinhead-1 (Caenorhabditis elegans, UniProt P34707); assay type: functional
T1 sequence (P34707 whole entry): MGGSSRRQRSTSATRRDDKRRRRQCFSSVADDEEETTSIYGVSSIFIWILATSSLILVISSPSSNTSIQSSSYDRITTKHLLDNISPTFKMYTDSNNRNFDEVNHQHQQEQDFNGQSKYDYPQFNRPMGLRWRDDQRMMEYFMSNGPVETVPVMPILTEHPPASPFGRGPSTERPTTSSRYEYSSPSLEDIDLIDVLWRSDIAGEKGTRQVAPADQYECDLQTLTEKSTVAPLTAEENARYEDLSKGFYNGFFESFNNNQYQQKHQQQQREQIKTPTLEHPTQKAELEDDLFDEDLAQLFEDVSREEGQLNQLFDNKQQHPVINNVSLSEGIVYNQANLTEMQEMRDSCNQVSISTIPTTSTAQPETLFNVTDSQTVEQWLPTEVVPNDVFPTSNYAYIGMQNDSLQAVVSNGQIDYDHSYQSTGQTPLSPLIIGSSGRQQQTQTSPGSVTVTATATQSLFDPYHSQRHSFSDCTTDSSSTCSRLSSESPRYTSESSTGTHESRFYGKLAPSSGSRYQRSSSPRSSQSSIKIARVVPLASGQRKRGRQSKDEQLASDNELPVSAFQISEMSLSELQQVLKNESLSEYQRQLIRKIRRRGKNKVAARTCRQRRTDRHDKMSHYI

[4] = Luminescence Cell-Based Dose Response HTS to Identify Inhibitors of 5'UTR Stem-Loop Driven Prion Protein mRNA Translation in H4 Neuroglioblastoma Cells. [Related pubchem assays: 1827 (Project Summary), 1813 (Primary HTS)]; assay type: functional
[5] = alpha-synuclein stem-loop luciferase translation blockers – H4 neuroglioma cells, luminescence, confirmation (AID 1988); assay type: functional, cell-based
[6] = luciferase reporter signal suppression in cells – H4 neuroglioma cells, luminescence, dose response (AID 1990); assay type: functional, cell-based
INS1 = assay: INS-1E survival protection against cytokine death – cell-based, luminescence, retest, dose response (AID 449756); assay type: functional; conditions: Rattus norvegicus;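 also: cell death triggered by IL-1 beta plus TNF-alpha plus IFN-gamma mixture; protective hits raise ATP signal compared with cytokine alone wells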
H4 = assay: Luminescence Cell-Based Dose Response HTS to Identify Activators of 5'UTR Stem-Loop Driven Prion Protein mRNA Translation in H4 Neuroglioblastoma Cells. [Related pubchem assays: 1829 (Project Summary), 1814 (Primary HTS)]; assay type: functional; conditions: Homo sapiens
[7] = Luminescence Cell-Based Dose Response HTS to Identify Activators of Luciferase Translation or Activity in H4 […] Cells. [Related pubchem assays: 1829 (Project Summary), 1814 (Primary HTS)]; assay type: functional
[8] = Luminescence Cell-Based Dose Confirmation HTS to Identify Activators of 5'UTR Stem-Loop Driven Alpha-Synuclein mRNA Translation in H4 Neuroglioblastoma Cells. [Related pubchem assays: 1829 (Project Summary), 1814 (Primary HTS)]; assay type: functional
[9] = viability of uninfected HEp-2 cells – cell-based, HTS, cytotoxicity control for RSV inhibitor project, dose response (AID 2410); assay type: functional; conditions: human respiratory syncytial virus
[10] = target: T2, Heat shock factor protein 1 (Mus musculus, UniProt P38532); assay: decrease of HSF1-responsive luciferase luminescence – cell-based, NIH3T3, dose retest, confirmation (AID 2382); assay type: functional;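 also: NIH3T3 fibroblasts with HSF1-driven luciferase reporter stressed by proteasome inhibitor MG132; luminescence from HSF1-driven luciferase expression after 8 hours of MG132 stress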
T2 sequence (P38532 whole entry): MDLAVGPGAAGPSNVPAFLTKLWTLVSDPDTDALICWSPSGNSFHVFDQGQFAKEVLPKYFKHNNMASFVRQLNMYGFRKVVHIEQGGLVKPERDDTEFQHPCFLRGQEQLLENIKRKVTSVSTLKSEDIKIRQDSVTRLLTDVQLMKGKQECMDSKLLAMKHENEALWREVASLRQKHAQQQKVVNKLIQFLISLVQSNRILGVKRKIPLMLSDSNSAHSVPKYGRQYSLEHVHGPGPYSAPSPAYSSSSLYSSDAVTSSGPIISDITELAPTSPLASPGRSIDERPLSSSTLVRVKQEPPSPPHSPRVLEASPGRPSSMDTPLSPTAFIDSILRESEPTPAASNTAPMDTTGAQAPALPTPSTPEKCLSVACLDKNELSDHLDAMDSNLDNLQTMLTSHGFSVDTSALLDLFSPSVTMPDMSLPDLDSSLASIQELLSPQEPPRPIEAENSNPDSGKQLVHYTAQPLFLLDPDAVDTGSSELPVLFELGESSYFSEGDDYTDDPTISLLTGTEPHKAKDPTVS

In the case of `O=C(Nc1ccc(C(O)(C(F)(F)F)C(F)(F)F)cc1)c1ccc(Cl)c([N+](=O)[O-])c1`, the AC50 [1] is reported as 5.95 µM (active).
For `c1ccc(-c2ccc(-n3ccnc3)cc2)cc1`, the EC50 [2] was > 30 µM (not active), the EC50 [3] was > 30 µM (not active) and the IC50 (Protein skinhead-1) was 6.11 µM (active).
In the case of `Clc1ccc(-c2nnc(SCc3ccon3)o2)c(Cl)c1`, the IC50 (Protein skinhead-1) is reported as 60.2 µM (inactive).
With `CCc1ccccc1N=C(S)N=C(N)Nc1nc(C)c2cc(C)ccc2n1` the EC50 [4] was > 120 µM (not active), the EC50 [5] was 29.4 µM (active) and the EC50 [6] was > 120 µM (not active).
For `O=C(NNC(=O)c1ccccc1OCc1ccccc1)c1ccccc1O`, the EC50 [4] was 11.6 µM (active), the EC50 [5] was 5.27 µM (active) and the AC50 (INS1) was 2.76 µM (active). The EC50 [6] was 3.92 µM (active).
With `O=Nc1c(O)n(Cc2ccc(Cl)cc2Cl)c2ccccc12` the AC50 [1] was 6.86 µM (active).
For `Clc1ccc(-c2nc(CSc3ccccn3)cs2)cc1`, the IC50 (Protein skinhead-1) was 59.1 µM (inactive).
In the case of `CC(=O)c1ccc(NC(=O)c2cccc(S(=O)(=O)N3CCN(C)CC3)c2)cc1`, the EC50 (H4) is reported as 20.7 µM (active), the EC50 [7] is reported as 40.6 µM (active) and the EC50 [8] is reported as 15.5 µM (active).
With `Cc1cccc(N(C(=O)c2nsc(Cl)c2Cl)C(C(=O)NC2CCCC2)c2ccc(O)cc2)c1` (centres undefined) the EC50 (H4) was > 120 µM (not active), the EC50 [7] was 1.09 µM (active) and the EC50 [8] was 0.548 µM (active).
For `Clc1cc(Cl)c2nc(N3CCCC3)sc2c1`, the IC50 (Protein skinhead-1) was 27.1 µM (active).
In the case of `CCN(CC)C(=O)c1sc(NC(=O)Cc2ccc(OC)cc2)c(C#N)c1C`, the IC50 (Protein skinhead-1) is reported as > 100 µM (inactive).
For `NC(=O)CC(NC(=O)Cc1cccc2ccccc12)c1ccc(NC2CC3CCC2C3)c([N+](=O)[O-])c1` (centres undefined), the CC50 [9] was > 50 µM (active).
With `COc1cc(/C=N/NC(=S)NC2CC3CC2C2C=CCC32)ccc1O` (centres undefined) the EC50 (H4) was > 120 µM (not active), the EC50 [7] was 69.7 µM (active) and the EC50 [8] was > 120 µM (not active).
For `Cc1ccc(NC(=O)Cn2nnc3ccccc32)cc1`, the EC50 (H4) was 111 µM (active), the EC50 [7] was > 120 µM (not active) and the EC50 [8] was 17.5 µM (active).
With `O=C1Nc2ccccc2/C1=C\c1cccn1-c1ccc(OC(F)(F)F)cc1` the EC50 [4] was > 120 µM (not active), the EC50 [5] was 15.4 µM (active) and the EC50 [6] was 15.7 µM (active).
For `CCc1ccc2c(c1)c1nnc(NN)nc1n2C`, the EC50 [4] was > 120 µM (not active), the EC50 [5] was > 120 µM (not active) and the EC50 [6] was > 120 µM (not active).
For `CCOC(=O)C1=C(c2ccccc2)OC(N)=C(C#N)C1C(C)C` (centres undefined), the EC50 (H4) was > 120 µM (not active), the EC50 [7] was > 120 µM (not active) and the EC50 [8] was > 120 µM (not active).
For `O=C(NC1CCCC1)C1C(c2ccc(C(F)(F)F)cc2)=Nc2ccccc2N1C(=O)c1ccco1` (centres undefined), the IC50 (Protein skinhead-1) was > 100 µM (inactive).
In the case of `CC(C)(C)c1ccc(NC(=O)c2c(F)cccc2Cl)cc1`, the CC50 [9] is reported as 43.5 µM (active).
With `CC(=O)c1ccc(NC(=O)CCc2c(C)nc3ncnn3c2C)cc1` the EC50 (H4) was 37.1 µM (active), the EC50 [7] was 8.11 µM (active) and the EC50 [8] was 73.6 µM (active).
With `C=CCn1c(SCC(=O)N2CCc3ccccc3C2)nc2sc(C)c(C)c2c1=O` the EC50 [10] was > 195 µM (not active).
